According to PubChem BioAssay (NCI):
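Tested at 5 concentrations; 48 h exposure; 96-well plates; endpoints linearly interpolated, else capped at highest concentration. Definition used: TGI = concentration required for complete inhibition of growth.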

test system: EKVX NSCLC; experiment: growth of human tumour cells (NCI), 48 h

**Q.** How did the TGI turn out when `Oc1cn(-c2ccc(Cl)cc2)nc1-c1nnc(-c2ccccc2)o1` was run?
**A.** > 60.1 µM

**Q.** `COc1ccc(N2C(=O)/C(=C(\C)c3cc4ccccc4oc3=O)N=C2c2cc([N+](=O)[O-])ccc2Cl)cc1` was tested. Which TGI did it give?
**A.** > 100 µM

**Q.** Which TGI does the source give for `O=C(O)CC(CC(=O)O)C(=O)O` here?
**A.** > 100 µM

**Q.** `CC(=O)N(C)c1ccc(Nc2cc(C)[nH]c3ccc4ncnc4c23)cc1` was tested. Which TGI did it give?
**A.** 50.5 µM

**Q.** For `FC(F)(F)c1ccc(N=C/C=C(/Nc2ccc(C(F)(F)F)cc2)c2ccc(Cl)cc2)cc1`, which TGI is on record?
**A.** 44.4 µM

**Q.** How did the TGI turn out when `CCCCN(CCCC)CC(O)c1cc(-c2ccc(C(F)(F)F)cc2)nc(-c2ccc(C(F)(F)F)cc2)c1` (configuration not stated) was run?
**A.** > 100 µM

**Q.** `CC(C)(C)[Si](OC1CC(n2cnc3c(N)ncnc32)OC1CO)(c1ccccc1)c1ccccc1` (configuration not stated) was tested. Which TGI did it give?
**A.** 41.7 µM

**Q.** `NS(=O)(=O)c1ccc(N=Nc2nc3[nH]c(=O)[nH]c(=O)c3[nH]2)cc1` was tested. Which TGI did it give?
**A.** > 100 µM

**Q.** With `CC1=CC(C)C/C=C/C2C3OC3(C)C(C)C3C(Cc4c[nH]c5ccccc45)NC(=O)C23C(=O)C=CC(=O)C1O` (configuration not stated) as the compound, how does the TGI read?
**A.** 14.7 µM

**Q.** With `O=C(O)c1ccc(Nc2c3ccccc3nc3ccccc23)cc1` as the compound, how does the TGI read?
**A.** > 100 µM

**Q.** `Cc1cc(C)n(C(=C(C(Cl)=C(Cl)Cl)[N+](=O)[O-])n2nc(C)cc2C)n1` was tested. Which TGI did it give?
**A.** 6.27 µM

**Q.** Which TGI does the source give for `COc1ccc(C2COc3cc(OC(C)=O)c(OC(C)=O)cc3C2)cc1` (configuration not stated) here?
**A.** 51.1 µM

**Q.** For `CCOc1cc2c(OCc3ccccc3)cc3c4cc(OC)c(OC)cc4c[n+](C)c3c2cc1OC`, which TGI is on record?
**A.** > 100 µM

**Q.** How did the TGI turn out when `C/C(=N\NC(=S)N1CCCCC1)c1nc2ncccc2[nH]1` was run?
**A.** 98.2 µM

test system: HL-60(TB) leukemia; experiment: growth of human tumour cells (NCI), 48 h

**Q.** With `c1nc(OCC2CCCCC2)c2[nH]cnc2n1` as the compound, how does the TGI read?
**A.** > 100 µM

**Q.** `Oc1cn(-c2ccc(Cl)cc2)nc1-c1nnc(-c2ccccc2)o1` was tested. Which TGI did it give?
**A.** 17.7 µM

**Q.** How did the TGI turn out when `COc1ccc(N2C(=O)/C(=C(\C)c3cc4ccccc4oc3=O)N=C2c2cc([N+](=O)[O-])ccc2Cl)cc1` was run?
**A.** 70.8 µM

**Q.** `O=C(O)CC(CC(=O)O)C(=O)O` was tested. Which TGI did it give?
**A.** > 100 µM

**Q.** With `CC(=O)N(C)c1ccc(Nc2cc(C)[nH]c3ccc4ncnc4c23)cc1` as the compound, how does the TGI read?
**A.** 18.9 µM

**Q.** Which TGI does the source give for `FC(F)(F)c1ccc(N=C/C=C(/Nc2ccc(C(F)(F)F)cc2)c2ccc(Cl)cc2)cc1` here?
**A.** 65.5 µM

**Q.** How did the TGI turn out when `CCCCN(CCCC)CC(O)c1cc(-c2ccc(C(F)(F)F)cc2)nc(-c2ccc(C(F)(F)F)cc2)c1` (configuration not stated) was run?
**A.** > 100 µM

**Q.** With `CC(C)(C)[Si](OC1CC(n2cnc3c(N)ncnc32)OC1CO)(c1ccccc1)c1ccccc1` (configuration not stated) as the compound, how does the TGI read?
**A.** > 100 µM

**Q.** How did the TGI turn out when `CC1=CC(C)C/C=C/C2C3OC3(C)C(C)C3C(Cc4c[nH]c5ccccc45)NC(=O)C23C(=O)C=CC(=O)C1O` (configuration not stated) was run?
**A.** 5.55 µM

**Q.** How did the TGI turn out when `O=C(O)c1ccc(Nc2c3ccccc3nc3ccccc23)cc1` was run?
**A.** > 100 µM

**Q.** Which TGI does the source give for `Cc1cc(C)n(C(=C(C(Cl)=C(Cl)Cl)[N+](=O)[O-])n2nc(C)cc2C)n1` here?
**A.** 3.92 µM

**Q.** With `COc1ccc(C2COc3cc(OC(C)=O)c(OC(C)=O)cc3C2)cc1` (configuration not stated) as the compound, how does the TGI read?
**A.** 7.32 µM

**Q.** `C/C(=N\NC(=S)N1CCCCC1)c1nc2ncccc2[nH]1` was tested. Which TGI did it give?
**A.** 19.1 µM

test system: HOP-62 NSCLC; experiment: growth of human tumour cells (NCI), 48 h

**Q.** Which TGI does the source give for `c1nc(OCC2CCCCC2)c2[nH]cnc2n1` here?
**A.** > 100 µM

**Q.** For `Oc1cn(-c2ccc(Cl)cc2)nc1-c1nnc(-c2ccccc2)o1`, which TGI is on record?
**A.** 4.64 µM

**Q.** For `COc1ccc(N2C(=O)/C(=C(\C)c3cc4ccccc4oc3=O)N=C2c2cc([N+](=O)[O-])ccc2Cl)cc1`, which TGI is on record?
**A.** > 100 µM

**Q.** For `O=C(O)CC(CC(=O)O)C(=O)O`, which TGI is on record?
**A.** > 100 µM

**Q.** How did the TGI turn out when `CC(=O)N(C)c1ccc(Nc2cc(C)[nH]c3ccc4ncnc4c23)cc1` was run?
**A.** 23.5 µM

**Q.** With `FC(F)(F)c1ccc(N=C/C=C(/Nc2ccc(C(F)(F)F)cc2)c2ccc(Cl)cc2)cc1` as the compound, how does the TGI read?
**A.** 40.1 µM

**Q.** For `CCCCN(CCCC)CC(O)c1cc(-c2ccc(C(F)(F)F)cc2)nc(-c2ccc(C(F)(F)F)cc2)c1` (configuration not stated), which TGI is on record?
**A.** > 100 µM

**Q.** For `CC(C)(C)[Si](OC1CC(n2cnc3c(N)ncnc32)OC1CO)(c1ccccc1)c1ccccc1` (configuration not stated), which TGI is on record?
**A.** 45.3 µM

**Q.** For `NS(=O)(=O)c1ccc(N=Nc2nc3[nH]c(=O)[nH]c(=O)c3[nH]2)cc1`, which TGI is on record?
**A.** > 100 µM

**Q.** For `CC1=CC(C)C/C=C/C2C3OC3(C)C(C)C3C(Cc4c[nH]c5ccccc45)NC(=O)C23C(=O)C=CC(=O)C1O` (configuration not stated), which TGI is on record?
**A.** 26.7 µM

**Q.** With `O=C(O)c1ccc(Nc2c3ccccc3nc3ccccc23)cc1` as the compound, how does the TGI read?
**A.** > 100 µM

**Q.** Which TGI does the source give for `Cc1cc(C)n(C(=C(C(Cl)=C(Cl)Cl)[N+](=O)[O-])n2nc(C)cc2C)n1` here?
**A.** 19.5 µM

**Q.** How did the TGI turn out when `COc1ccc(C2COc3cc(OC(C)=O)c(OC(C)=O)cc3C2)cc1` (configuration not stated) was run?
**A.** 67.4 µM

**Q.** Which TGI does the source give for `CCOc1cc2c(OCc3ccccc3)cc3c4cc(OC)c(OC)cc4c[n+](C)c3c2cc1OC` here?
**A.** 19.6 µM

**Q.** How did the TGI turn out when `C/C(=N\NC(=S)N1CCCCC1)c1nc2ncccc2[nH]1` was run?
**A.** > 100 µM

test system: U251 CNS; experiment: growth of human tumour cells (NCI), 48 h

**Q.** `c1nc(OCC2CCCCC2)c2[nH]cnc2n1` was tested. Which TGI did it give?
**A.** > 100 µM

**Q.** Which TGI does the source give for `Oc1cn(-c2ccc(Cl)cc2)nc1-c1nnc(-c2ccccc2)o1` here?
**A.** 30.8 µM

**Q.** Which TGI does the source give for `COc1ccc(N2C(=O)/C(=C(\C)c3cc4ccccc4oc3=O)N=C2c2cc([N+](=O)[O-])ccc2Cl)cc1` here?
**A.** > 100 µM

**Q.** `O=C(O)CC(CC(=O)O)C(=O)O` was tested. Which TGI did it give?
**A.** > 100 µM

**Q.** `CC(=O)N(C)c1ccc(Nc2cc(C)[nH]c3ccc4ncnc4c23)cc1` was tested. Which TGI did it give?
**A.** 30.6 µM

**Q.** For `FC(F)(F)c1ccc(N=C/C=C(/Nc2ccc(C(F)(F)F)cc2)c2ccc(Cl)cc2)cc1`, which TGI is on record?
**A.** 28.2 µM

**Q.** `CCCCN(CCCC)CC(O)c1cc(-c2ccc(C(F)(F)F)cc2)nc(-c2ccc(C(F)(F)F)cc2)c1` (configuration not stated) was tested. Which TGI did it give?
**A.** > 100 µM

**Q.** For `CC(C)(C)[Si](OC1CC(n2cnc3c(N)ncnc32)OC1CO)(c1ccccc1)c1ccccc1` (configuration not stated), which TGI is on record?
**A.** 34.1 µM

**Q.** How did the TGI turn out when `NS(=O)(=O)c1ccc(N=Nc2nc3[nH]c(=O)[nH]c(=O)c3[nH]2)cc1` was run?
**A.** > 100 µM

**Q.** Which TGI does the source give for `CC1=CC(C)C/C=C/C2C3OC3(C)C(C)C3C(Cc4c[nH]c5ccccc45)NC(=O)C23C(=O)C=CC(=O)C1O` (configuration not stated) here?
**A.** 43.2 µM

**Q.** Which TGI does the source give for `O=C(O)c1ccc(Nc2c3ccccc3nc3ccccc23)cc1` here?
**A.** > 100 µM

**Q.** How did the TGI turn out when `Cc1cc(C)n(C(=C(C(Cl)=C(Cl)Cl)[N+](=O)[O-])n2nc(C)cc2C)n1` was run?
**A.** 11.7 µM

**Q.** How did the TGI turn out when `COc1ccc(C2COc3cc(OC(C)=O)c(OC(C)=O)cc3C2)cc1` (configuration not stated) was run?
**A.** 24.3 µM

**Q.** For `CCOc1cc2c(OCc3ccccc3)cc3c4cc(OC)c(OC)cc4c[n+](C)c3c2cc1OC`, which TGI is on record?
**A.** 2.66 µM

**Q.** Which TGI does the source give for `C/C(=N\NC(=S)N1CCCCC1)c1nc2ncccc2[nH]1` here?
**A.** > 100 µM

test system: UO-31 renal; experiment: growth of human tumour cells (NCI), 48 h

**Q.** Which TGI does the source give for `c1nc(OCC2CCCCC2)c2[nH]cnc2n1` here?
**A.** > 100 µM

**Q.** `Oc1cn(-c2ccc(Cl)cc2)nc1-c1nnc(-c2ccccc2)o1` was tested. Which TGI did it give?
**A.** 31.9 µM

**Q.** `COc1ccc(N2C(=O)/C(=C(\C)c3cc4ccccc4oc3=O)N=C2c2cc([N+](=O)[O-])ccc2Cl)cc1` was tested. Which TGI did it give?
**A.** > 100 µM

**Q.** `O=C(O)CC(CC(=O)O)C(=O)O` was tested. Which TGI did it give?
**A.** > 100 µM

**Q.** How did the TGI turn out when `CC(=O)N(C)c1ccc(Nc2cc(C)[nH]c3ccc4ncnc4c23)cc1` was run?
**A.** 56.3 µM

**Q.** `FC(F)(F)c1ccc(N=C/C=C(/Nc2ccc(C(F)(F)F)cc2)c2ccc(Cl)cc2)cc1` was tested. Which TGI did it give?
**A.** > 100 µM

**Q.** How did the TGI turn out when `CCCCN(CCCC)CC(O)c1cc(-c2ccc(C(F)(F)F)cc2)nc(-c2ccc(C(F)(F)F)cc2)c1` (configuration not stated) was run?
**A.** > 100 µM

**Q.** `CC(C)(C)[Si](OC1CC(n2cnc3c(N)ncnc32)OC1CO)(c1ccccc1)c1ccccc1` (configuration not stated) was tested. Which TGI did it give?
**A.** 68.1 µM

**Q.** Which TGI does the source give for `NS(=O)(=O)c1ccc(N=Nc2nc3[nH]c(=O)[nH]c(=O)c3[nH]2)cc1` here?
**A.** > 100 µM

**Q.** With `CC1=CC(C)C/C=C/C2C3OC3(C)C(C)C3C(Cc4c[nH]c5ccccc45)NC(=O)C23C(=O)C=CC(=O)C1O` (configuration not stated) as the compound, how does the TGI read?
**A.** 6.05 µM

**Q.** How did the TGI turn out when `O=C(O)c1ccc(Nc2c3ccccc3nc3ccccc23)cc1` was run?
**A.** > 100 µM

**Q.** For `Cc1cc(C)n(C(=C(C(Cl)=C(Cl)Cl)[N+](=O)[O-])n2nc(C)cc2C)n1`, which TGI is on record?
**A.** 11.3 µM

**Q.** How did the TGI turn out when `COc1ccc(C2COc3cc(OC(C)=O)c(OC(C)=O)cc3C2)cc1` (configuration not stated) was run?
**A.** 40.6 µM

**Q.** For `CCOc1cc2c(OCc3ccccc3)cc3c4cc(OC)c(OC)cc4c[n+](C)c3c2cc1OC`, which TGI is on record?
**A.** > 80.4 µM

**Q.** For `C/C(=N\NC(=S)N1CCCCC1)c1nc2ncccc2[nH]1`, which TGI is on record?
**A.** > 100 µM
